{"source": "patent US6248718A", "about": "“Lesion-directed dry dosage forms of antibacterial agents for the treatment of acute mucosal infections of the oral cavity” (priority 1999, dated 2001)", "key": {"[1]": {"tested_on": "Staphylococcus aureus ATCC 29213", "experiment": "MIC for standard strain used in saliva antibiotic assay (Examples VII-IX)", "assay_type": "cell-based", "conditions": "Staphylococcus aureus, ATCC29213; nutrient broth, 37° C., 18 hours", "description": "Each filtered mixture in test tube was inoculated with 0.1 ml of a 1:1,000 dilution of a 12 hour broth culture of Staphylococcus aureus ATCC 29213.\nA row of 6 test tubes each containing 2 ml of nutrient broth with decreasing concentrations of penicillin G potassium from 6.2 to 0.16 mcg/ml, using a serial double dilution method described in a., was prepared and similarly inoculated with 0.1 ml broth culture of Staphylococcus aureus ATCC 29213 as the standard.\nAll test tubes were incubated at 37° C. for 18 hours and observed for bacterial growth against an inoculated broth containing neither antibiotic nor saliva samples.\nIn this study, the drug powder was suspended in one teaspoonful of water and swallowed by the test subjects two hours after breakfast, followed by drinking an 8 Oz. glass of water. The test subjects refrained from drinking or eating for the next three hours. Six samples of saliva were collected from each subject at 30-minute intervals in succession in the next three hours. An aliquot of 0.2 ml from each saliva sample was transferred to 3.8 ml of nutrient broth. The mixture of the latter was forced to pass a bacterial filter. Two (2) ml of the bacteria-free filtrate was pipetted out into a sterile test tube and inoculated with 0.1 ml of a 1:1,000 dilution of a 12 hours broth culture of Staphylococcus aureus ATCC 29213 and incubated at 37° C. for 18 hours. […]"}, "[2]": {"tested_on": "bacteria in saliva in the vicinity of the canker ulcer", "experiment": "Bacterial inhibition in saliva of canker sore patients in vivo (Example VI)", "description": "(§1) Six (6) adult, otherwise healthy patients suffering from recurrent minor canker sores were selected for this study from July 10 to Nov. 12, 1998. The drug substance used for this study was crystalline penicillin G potassium salt, U.S.P. grade, purchased from Sigma Chemical Co., St. Louis, Mo. 63178 (Lot No. 57H1195).\n(§2) On the first or the second day after the patients noticed the formation of the canker ulcers, 50 mg of penicillin G potassium was administered topically with a spatula or the handle of a teaspoon as dry powder directly over the canker ulcers, four times a day, i.e. after breakfast, after lunch, after supper and before bed time. The patients were advised to retain the antibiotic powder and its concentrated solution in a small pocket of saliva at the site of the ulcer and to avoid its excessive dilution by saliva from other parts of the oral cavity for one hour after each application of the antibiotic powder. No food or drink was allowed during this one-hour period.\nSamples of 0.1 ml of saliva at the site in the vicinity of the canker ulcer were pipetted from the mouth immediately before instituting the first penicillin G potassium application and about 60-70 minutes after the first antibiotic application. Each sample was spread on the surface of a 10-cm blood agar Petri dish with a sterile plastic loop. The inoculated plates were incubated aerobically at 37° C. for 18 hours as described above. The total numbers of bacterial colonies on each plate were estimated. The dominating species of the microorganisms were identified according to the approved protocols routinely used in a clinical microbiology laboratory. The results are tabulated as follows\nOn day 2, about 48 hours after the medication was initiated, the patients collected an early morning sample of saliva immediately after getting up and submitted it to the laboratory for culture. While in the laboratory, a second sample of the residual exudate covering the ulcer was taken from the patient for a post-treatment follow-up microscopy after Congo red negative staining.\nOn day 6, i.e. two days after the last dose of medication, the patients were instructed to collect a sample of saliva in a sterile test tube upon waking up in the morning before brushing their teeth. The saliva was brought to the laboratory. Aliquot of 0.1 ml of each saliva sample was pipetted and inoculated on the surface of a blood agar plate and incubated aerobically as described previously. After 18 hours of incubation, there were more 3,000 colonies growing on each blood agar plate. The overwhelming majority of the colonies were those of Neisseriae and non-β-hemolytic streptococci, similar to those observed in FIG. 1."}, "[3]": {"experiment": "Healing of canker sores in patients (Example VI)", "assay_type": "in vivo, human", "conditions": "50 mg four times a day, four days course, six patients", "description": "as §1, §2"}, "[4]": {"experiment": "Concentrations of penicillin G potassium in saliva after oral ingestion (Example VIII)", "assay_type": "in vivo, human", "conditions": "for concentration in human saliva: 30-min intervals to 3 hours", "description": "Eight healthy adults, four men and four women, volunteered for this study. Two men and two women were given 500 mg each, and two men and two women were given 250 mg of USP grade penicillin G potassium powder each by mouth, respectively. These two doses were chosen for the study because they have been used as the standard adult oral doses for systemic treatment of human bacterial infections.\nIn this study, the drug powder was suspended in one teaspoonful of water and swallowed by the test subjects two hours after breakfast, followed by drinking an 8 Oz. glass of water. The test subjects refrained from drinking or eating for the next three hours. Six samples of saliva were collected from each subject at 30-minute intervals in succession in the next three hours. An aliquot of 0.2 ml from each saliva sample was transferred to 3.8 ml of nutrient broth. The mixture of the latter was forced to pass a bacterial filter. Two (2) ml of the bacteria-free filtrate was pipetted out into a sterile test tube and inoculated with 0.1 ml of a 1:1,000 dilution of a 12 hours broth culture of Staphylococcus aureus ATCC 29213 and incubated at 37° C. for 18 hours. A series of test tubes containing known concentrations, from 6.2 mcg/ml to 0.16 mcg/ml, of penicillin G potassium in 2 ml of nutrient broth was also inoculated with the same broth culture as standards.\nSince 0.75 mcg/ml is the consistent MIC observed in this laboratory for Staphylococcus aureus ATCC 29213, the penicillin concentration in the saliva-broth filtrate must have been at a level below 0.75 mcg/ml."}, "[5]": {"experiment": "Topical dry dosage treatment of minor aphthous ulcers, gingivitis and periodontal infections", "assay_type": "in vivo, human", "conditions": "50 mg dry dosage form, four times a day", "text": "The administration of the medicament depends upon the type of infection to be treated and the type and dosage of the antibacterial agent used. The appropriate antibacterial agent, dosage and treatment regimen can readily be determined by someone having ordinary skill in this art. […] Thorough tooth cleaning is advised prior to introduction of the medicament to an infected area."}}, "note": "Values joined by “and” are separate entries in the source; they are usually repeats but may differ in a detail not shown here. Equal values may be shown once. “Also recorded” adds a separate entry of the source.", "data": [{"molecule": "CC1(C)S[C@@H]2[C@H](NC(=O)Cc3ccccc3)C(=O)N2[C@H]1C(=O)O", "note": "[penicillin G potassium]", "values": [{"measurement": "MIC", "setting": "[1]", "value": 0.75, "unit": "µg/mL"}, {"measurement": "duration of inhibitory effect on oral flora", "setting": "[2]; 50 mg", "value": "not long-lasting"}, {"measurement": "alteration of normal oral flora", "setting": "[2]; 50 mg four times a day, intermittent", "value": "not permanently altered; also recorded: did not seem to alter the dominant microbial components of the normal flora"}, {"measurement": "Colonies after Treatment", "setting": "[2]; 50 mg powder, about 60-70 minutes, 0.1 ml saliva, per patient, Y = yeast", "value": "0 and 2 and Two"}, {"measurement": "inhibition of bacteria in saliva covering the ulcer", "setting": "[2]; 50 mg powder, about one hour", "value": "totally destroyed or inhibited; also recorded: intermittent total inhibition of bacterial growth in the saliva"}, {"measurement": "bacterial colonies in early morning saliva", "setting": "[2]; day 2, about 48 hours after start of medication, 0.1 ml", "value": "more than 3,000 bacterial colonies"}, {"measurement": "bacterial colonies in morning saliva", "setting": "[2]; day 6, two days after last dose, 0.1 ml", "value": "> 3,000 colonies"}, {"measurement": "healing of canker sores", "setting": "[3]", "value": "healed completely"}, {"measurement": "concentration in human saliva", "setting": "[4]; oral ingestion of 250 mg", "value": "< 15000", "unit": "ng/mL"}, {"measurement": "concentration in human saliva", "setting": "[4]; oral ingestion of 500 mg", "value": "< 15000", "unit": "ng/mL"}, {"measurement": "bacterial growth in saliva-broth filtrate", "setting": "[4]; oral ingestion of 250 or 500 mg, S. aureus ATCC 29213, 48 tubes", "value": "vigorous bacterial growth"}, {"measurement": "patients with complete relief of pains within about 48 hours", "setting": "[5]", "value": "over 90%"}, {"measurement": "time to complete relief of pains", "setting": "[5]", "value": "≤ 48", "unit": "h"}]}]}
